In patent publication US20100113513A1, “QUINOLINE DERIVATIVES AS FUNGICIDES” (SYNGENTA CROP PROTECTION, INC., priority 2007, published 2010):

These compounds were tested on Erysiphe graminis f.sp. tritici (assay: Erysiphe graminis f.sp. tritici (wheat powdery mildew) wheat leaf segment test, preventive). Settings: Blumeria graminis, foliar, 96 h, wheat leaf segments, assessed four days after inoculation, read-out: control of fungal infection, Erysiphe graminis f.sp. tritici.
Assay type: in vivo
`CCC(Oc1ccc2ncc(Br)cc2c1)C(=O)NC(C)(C#N)COC` (stereo not drawn) [52 (154), 2-(3-Bromo-quinolin-6-yloxy)-N-(1-cyano-2-methoxy-1-methyl-ethyl)-butyramide] gave a pest or weed control at 200 ppm of no less than 60%. For `COC(Oc1cc(Br)c2ncc(Br)cc2c1)C(=O)NC(C)(C)C` (stereo not drawn) [12 (99), N-tert-Butyl-2-(3,8-dibromo-quinolin-6-yloxy)-2-methoxy-acetamide], the pest or weed control at 200 ppm was no less than 60%. With `COC(Oc1ccc2ncc(Br)cc2c1)C(=O)NC(C)(C)C` (stereo not drawn) [12 (155), 2-(3-bromo-quinolin-6-yloxy)-N-tert-butyl-2-methoxy-acetamide] the pest or weed control at 200 ppm was no less than 60%. `CCC(Oc1cc(C)c2ncc(Br)cc2c1)C(=O)NC(C)(C)COC` (stereo not drawn) [47 (90), 2-(3-Bromo-8-methyl-quinolin-6-yloxy)-N-(2-methoxy-1,1-dimethyl-ethyl)-butyramide] gave a pest or weed control at 200 ppm of no less than 60%. Compound `CCC(Oc1ccc2ncc(Br)cc2c1)C(=O)NC(C)(C)C` (stereo not drawn) [12 (154), 2-(3-bromo-quinolin-6-yloxy)-N-tert-butyl-butyramide] has a pest or weed control at 200 ppm of no less than 60%. `COCC(C)(C#N)NC(=O)C(OC)Oc1ccc2ncc(Br)cc2c1` (stereo not drawn) [52 (155), 2-(3-Bromo-quinolin-6-yloxy)-N-(1-cyano-2-methoxy-1-methyl-ethyl)-2-methoxy-acetamide] was tested, and the pest or weed control at 200 ppm was no less than 60%. Work on `CCOC(Oc1ccc2ncc(Br)cc2c1)C(=O)NC(C)(C)COC` (stereo not drawn) [47 (156), 2-(3-Bromo-quinolin-6-yloxy)-2-ethoxy-N-(2-methoxy-1,1-dimethyl-ethyl)-acetamide] yielded a pest or weed control at 200 ppm of no less than 60%. `COCC(C)(C)NC(=O)C(OC)Oc1ccc2ncc(Br)cc2c1` (stereo not drawn) [47 (155), 2-(3-Bromo-quinolin-6-yloxy)-2-methoxy-N-(2-methoxy-1,1-dimethyl-ethyl)-acetamide] was tested, and the pest or weed control at 200 ppm was no less than 60%. With `CCOC(Oc1ccc2ncc(Br)cc2c1)C(=O)NC(C)(C)C` (stereo not drawn) [12 (156), 2-(3-Bromo-quinolin-6-yloxy)-N-tert-butyl-2-ethoxy-acetamide] the pest or weed control at 200 ppm was no less than 60%.
